Experimental data: patent US12528814B2, “Bifunctional degraders of interleukin-1 receptor-associated kinases and therapeutic use thereof” (NURIX THERAPEUTICS, INC., priority 2020, dated 2026)

Columns and labels:
IRAK4 [1] = target: T1, IRAK4 (Homo sapiens (Human), UniProt Q9NWZ3); assay: IRAK4 Degradation HiBiT Assay; conditions: multiple runs, HiBiT-tagged Jurkat cells, 4 hrs; for Dmax: Jurkat, read-out: Cellular IRAK4 HiBiT: Dmax, Table 5; for DC50: read-out: Cellular IRAK4 HiBiT: DC50, Table 5
Target sequence in this assay (Q9NWZ3 whole entry): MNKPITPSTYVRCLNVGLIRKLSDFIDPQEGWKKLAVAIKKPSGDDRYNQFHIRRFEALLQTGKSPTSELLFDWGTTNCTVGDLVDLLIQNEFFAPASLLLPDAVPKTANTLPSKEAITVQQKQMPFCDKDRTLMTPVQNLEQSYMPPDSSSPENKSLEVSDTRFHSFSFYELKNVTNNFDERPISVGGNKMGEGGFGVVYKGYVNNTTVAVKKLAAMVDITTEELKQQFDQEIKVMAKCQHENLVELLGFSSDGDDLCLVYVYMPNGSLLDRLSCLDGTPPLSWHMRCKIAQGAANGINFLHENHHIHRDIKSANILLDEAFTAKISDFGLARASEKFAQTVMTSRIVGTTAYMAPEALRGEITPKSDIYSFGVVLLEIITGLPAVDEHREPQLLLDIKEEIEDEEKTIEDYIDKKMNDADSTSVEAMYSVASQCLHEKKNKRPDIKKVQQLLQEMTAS

IRAK4 [2] = target: T1, IRAK4; assay: IRAK4 Biochemical HTRF Kinase Assay; conditions: Table 5; multiple runs; read-out: IRAK4 HTRF biochemical: IC50
Outline: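 HTRF KinEASE STK S1 format measuring IRAK4 phosphorylation of biotinylated peptide; reaction solution of 5 μM STK-S1, 10 mM ATP, 10 mM MgCl2 added (stock, to 10 μl final), 90 min at ambient temperature, detection 60 min. IC50 from sixteen-point duplicate curves by non-linear regression.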
Target sequence in this assay (Q9NWZ3 whole entry, species assumed): as the sequence (Q9NWZ3 whole entry) above

Row | SMILES | Dmax (IRAK4 [1]) | DC50 (IRAK4 [1]) | IC50 (IRAK4 [2])
1 | CNc1cc(-c2ccc3cc(C#N)cnn23)ncc1-c1nnc(C23CCC(NC(=O)CCCC(=O)N[C@H](C(=O)N4C[C@H](O)C[C@H]4C(=O)NCc4ccc(-c5scnc5C)cc4)C(C)(C)C)(CC2)CC3)s1 [Example 141, N1-(4-(5-(6-(3-cyanopyrrolo[1,2-b]pyridazin-7-yl)-4-(methylamino)pyridin-3-yl)-1,3,4-thiadiazol-2-yl)bicyclo[2.2.2]octan-1-yl)-N5-((S)-1-((2S,4R)-4-hydroxy-2-((4-(4-methylthiazol-5-yl)benzyl)carbamoyl)pyrrolidin-1-yl)-3,3-dimethyl-1-oxobutan-2-yl)glutaramide] | 133% | 1910 nM | 1.4 nM
2 | CNc1cc(-c2ccc3cc(C#N)cnn23)ncc1-c1nnc([C@H]2CC[C@H](NC(=O)CN3CCN(c4ccc5c(c4)C(=O)N(C4CCC(=O)N(C)C4=O)C5=O)CC3)CC2)s1 (stereo partly drawn) [Example 148, N-((1r,4r)-4-(5-(6-(3-cyanopyrrolo[1,2-b]pyridazin-7-yl)-4-(methylamino)pyridin-3-yl)-1,3,4-thiadiazol-2-yl)cyclohexyl)-2-(4-(2-(1-methyl-2,6-dioxopiperidin-3-yl)-1,3-dioxoisoindolin-5-yl)piperazin-1-yl)acetamide] |  | > 9980 nM | 1.4 nM
3 | CNc1cc(-c2ccc3cc(C#N)cnn23)ncc1-c1nnc(C2CCC(NC(=O)C[C@H](NC(=O)[C@@H]3C[C@@H](O)CN3C(=O)[C@@H](NC(=O)C3(F)CC3)C(C)(C)C)c3ccccc3)CC2)s1 (stereo partly drawn) [Example 149, (2S,4R)—N—((S)-3-(((1r,4S)-4-(5-(6-(3-cyanopyrrolo[1,2-b]pyridazin-7-yl)-4-(methylamino)pyridin-3-yl)-1,3,4-thiadiazol-2-yl)cyclohexyl)amino)-3-oxo-1-phenylpropyl)-1-((S)-2-(1-fluorocyclopropane-1-carboxamido)-3,3-dimethylbutanoyl)-4-hydroxypyrrolidine-2-carboxamide] |  | > 9980 nM | 0.8 nM
4 | CNc1cc(-c2ccc3cc(C#N)cnn23)ncc1-c1nnc([C@H]2CC[C@H](NC(=O)CCC(=O)N[C@H](C(=O)N3C[C@@H](O)C[C@H]3C(=O)NCc3ccc(-c4scnc4C)cc3)C(C)(C)C)CC2)s1 [Example 151, N1-((1r,4S)-4-(5-(6-(3-cyanopyrrolo[1,2-b]pyridazin-7-yl)-4-(methylamino)pyridin-3-yl)-1,3,4-thiadiazol-2-yl)cyclohexyl)-N4—((S)-1-((2S,4S)-4-hydroxy-2-((4-(4-methylthiazol-5-yl)benzyl)carbamoyl)pyrrolidin-1-yl)-3,3-dimethyl-1-oxobutan-2-yl)succinamide] |  | > 6980 nM | 0.9 nM
5 | CNc1cc(-c2ccc3cc(C#N)cnn23)ncc1-c1nnc([C@H]2CC[C@H](NC(=O)CC(C)(C)C(=O)N[C@H](C(=O)N3C[C@H](O)C[C@H]3C(=O)N[C@@H](C)c3ccc(-c4scnc4C)cc3)C(C)(C)C)CC2)s1 [Example 154, N4-((1r,4S)-4-(5-(6-(3-cyanopyrrolo[1,2-b]pyridazin-7-yl)-4-(methylamino)pyridin-3-yl)-1,3,4-thiadiazol-2-yl)cyclohexyl)-N1—((S)-1-((2S,4R)-4-hydroxy-2-(((S)-1-(4-(4-methylthiazol-5-yl)phenyl)ethyl)carbamoyl)pyrrolidin-1-yl)-3,3-dimethyl-1-oxobutan-2-yl)-2,2-dimethylsuccinamide] | 68% | 544 nM | 2.8 nM

Stronger by DC50 (IRAK4 [1]), values ahead:

Row | Dmax (IRAK4 [1]) | DC50 (IRAK4 [1]) | IC50 (IRAK4 [2]) | SMILES
6 | 49% | 109 nM | 1.8 nM | CNc1cc(-c2ccc3cc(C#N)cnn23)ncc1-c1nnc(N2CCN(C3CCN(Cc4ccc(C(=O)NC5CCC(=O)NC5=O)cc4)CC3)CC2)s1 (stereo not drawn) [Example 145, 4-((4-(4-(5-(6-(3-cyanopyrrolo[1,2-b]pyridazin-7-yl)-4-(methylamino)pyridin-3-yl)-1,3,4-thiadiazol-2-yl)piperazin-1-yl)piperidin-1-yl)methyl)-N-(2,6-dioxopiperidin-3-yl)benzamide]
7 | 77% | 231 nM | 2.9 nM | CNc1cc(-c2ccc3cc(C#N)cnn23)ncc1-c1nnc(N2CCC(NC(=O)C[C@H](NC(=O)[C@@H]3C[C@@H](O)CN3C(=O)[C@@H](NC(=O)C3(F)CC3)C(C)(C)C)c3ccc(-c4scnc4C)cc3)CC2)s1 [Example 146, (2S,4R)—N—((S)-3-((1-(5-(6-(3-cyanopyrrolo[1,2-b]pyridazin-7-yl)-4-(methylamino)pyridin-3-yl)-1,3,4-thiadiazol-2-yl)piperidin-4-yl)amino)-1-(4-(4-methylthiazol-5-yl)phenyl)-3-oxopropyl)-1-((S)-2-(1-fluorocyclopropane-1-carboxamido)-3,3-dimethylbutanoyl)-4-hydroxypyrrolidine-2-carboxamide]
8 | 113% | 441 nM | 5.5 nM | CNc1cc(-c2ccc3cc(C#N)cnn23)ncc1-c1nnc(N2CCCC3(CN(C(=O)C[C@H](NC(=O)[C@@H]4C[C@@H](O)CN4C(=O)[C@@H](NC(=O)C4(F)CC4)C(C)(C)C)c4ccc(-c5scnc5C)cc4)C3)C2)s1 [Example 150, (2S,4R)—N—((S)-3-(6-(5-(6-(3-cyanopyrrolo[1,2-b]pyridazin-7-yl)-4-(methylamino)pyridin-3-yl)-1,3,4-thiadiazol-2-yl)-2,6-diazaspiro[3.5]nonan-2-yl)-1-(4-(4-methylthiazol-5-yl)phenyl)-3-oxopropyl)-1-((S)-2-(1-fluorocyclopropane-1-carboxamido)-3,3-dimethylbutanoyl)-4-hydroxypyrrolidine-2-carboxamide]
9 | 113% | 63 nM | 0.9 nM | CNc1cc(-c2ccc3cc(C#N)cnn23)ncc1-c1nnc([C@H]2CC[C@H](NC(=O)C3CCN(c4ccc5c(c4)C(=O)N(C4CCC(=O)NC4=O)C5=O)CC3)CC2)s1 (stereo partly drawn) [Example 152, N-((1r,4r)-4-(5-(6-(3-cyanopyrrolo[1,2-b]pyridazin-7-yl)-4-(methylamino)pyridin-3-yl)-1,3,4-thiadiazol-2-yl)cyclohexyl)-1-(2-(2,6-dioxopiperidin-3-yl)-1,3-dioxoisoindolin-5-yl)piperidine-4-carboxamide]
10 | 68% | 54.8 nM | 0.5 nM | CNc1cc(-c2ccc3cc(C#N)cnn23)ncc1-c1nnc([C@H]2CC[C@H](NC[C@@H]3CCN(c4ccc5c(c4)C(=O)N(C4CCC(=O)NC4=O)C5=O)C3)CC2)s1 (stereo partly drawn) [Example 153, 7-(5-(5-((1S,4r)-4-((((3S)-1-(2-(2,6-dioxopiperidin-3-yl)-1,3-dioxoisoindolin-5-yl)pyrrolidin-3-yl)methyl)amino)cyclohexyl)-1,3,4-thiadiazol-2-yl)-4-(methylamino)pyridin-2-yl)pyrrolo[1,2-b]pyridazine-3-carbonitrile]
11 | 90% | 519 nM | 2.4 nM | CNc1cc(-c2ccc3cc(C#N)cnn23)ncc1-c1nnc(C23CCC(NC(=O)CC(C)(C)C(=O)N[C@H](C(=O)N4C[C@H](O)C[C@H]4C(=O)N[C@@H](C)c4ccc(-c5scnc5C)cc4)C(C)(C)C)(CC2)CC3)s1 [Example 155, N4-(4-(5-(6-(3-cyanopyrrolo[1,2-b]pyridazin-7-yl)-4-(methylamino)pyridin-3-yl)-1,3,4-thiadiazol-2-yl)bicyclo[2.2.2]octan-1-yl)-N1—((S)-1-((2S,4R)-4-hydroxy-2-(((S)-1-(4-(4-methylthiazol-5-yl)phenyl)ethyl)carbamoyl)pyrrolidin-1-yl)-3,3-dimethyl-1-oxobutan-2-yl)-2,2-dimethylsuccinamide]
